Tests used:
[1] = system: gastric acid secretion; assay: Gastric acid releasing suppression ability test by oral administration (pylorus-ligated, histamine-stimulated rats); assay type: in vivo
Description: A week before the test, test animals (rats) were purchased and acclimatized. After acclimatization, food was removed the day before the test and fasting was performed for 24 hours using a fasting plate. The weight of each individual was measured, weight ranking was sequentially assigned to each group, and the average value of each group was randomly distributed so that the average value was evenly distributed. Test material (the embodiment compound and comparison compound) were used by dissolving them in 0.5% methylcellulose solution, and tegoprazan was used as a comparative compound. The prepared test material was orally administered to test animals at an amount of 3 mg/5 ml/kg, and 30 minutes later, inhalation anesthesia (3% isoflurane) was performed for 3 minutes using an inhalation anesthesia machine. After making a minimal incision in the upper abdomen about 1 cm below the left side of the sternum of an anesthetized test animal, the stomach was exposed, and the pyloric ring, which is the connection between the stomach and the duodenum, was ligated. The stomach and duodenum were restored to their original positions, and the laparotomy site was sutured well with surgical staplers. Histamine (7.5 mg/2.5 mL/head) was slowly administered subcutaneously to the back of the neck to promote gastric acid secretion. 3 hours after the surgery, the experimental animals were anesthetized with isoflurane and the stomach was removed through laparotomy. Gastric fluid obtained from the extracted stomach was transferred to a 15 ml conical tube, centrifuged at 5,000 rpm for 10 minutes, and only the supernatant was separated. 0.2 mL of the separated gastric fluid was diluted in 24.8 mL of distilled water to make a total dilution of 25 mL, and then 0.01N NaOH was added in small amounts to titrate until the pH reached 7. Efficacy was evaluated by calculating total acidity by combining the amount of gastric fluid and the amount of 0.01N NaOH required for titration.

[2] = system: gastric acid secretion; assay: Gastric acid releasing suppression ability test by administration in the duodenum (pylorus-ligated, histamine-stimulated rats); assay type: in vivo; conditions: for gastric acid releasing suppression ability (% INH, Mean ± SD): intraduodenal 1 mg/5 ml/kg in 0.5% methylcellulose, pylorus ligation, histamine s.c., gastric fluid collected 3 hours after surgery
Description: A week before the test, test animals (rats) were purchased and acclimatized. After acclimatization, food was removed the day before the test and fasting was performed for 24 hours using a fasting plate. The weight of each individual was measured, weight ranking was sequentially assigned to each group, and the average value of each group was randomly distributed so that the average value was evenly distributed. Test material (the embodiment compound and comparison compound) were used by dissolving them in 0.5% methylcellulose solution, and tegoprazan was used as a comparative compound. Experimental animals were subjected to inhalation anesthesia (3% isoflurane) for 3 minutes using an inhalation anesthesia machine. After making a minimal incision in the upper abdomen about 1 cm below the left side of the sternum of an anesthetized test animal, the stomach was exposed, and the pyloric ring, which is the connection between the stomach and the duodenum, was ligated. The prepared drug was administered into the duodenum in an amount of 1 mg/5 ml/kg, the stomach and duodenum were restored to their original positions, and the laparotomy site was sutured well with a surgical stapler. Histamine (7.5 mg/2.5 mL/head) was slowly administered subcutaneously to the back of the neck to promote gastric acid secretion. 3 hours after the surgery, the experimental animals were anesthetized with isoflurane and the stomach was removed through laparotomy. Gastric fluid obtained from the extracted stomach was transferred to a 15 ml conical tube, centrifuged at 5,000 rpm for 10 minutes, and only the supernatant was separated. 0.2 mL of the separated gastric fluid was diluted in 24.8 mL of distilled water to make a total dilution of 25 mL, and then 0.01N NaOH was added in small amounts to titrate until the pH reached 7. Efficacy was evaluated by calculating total acidity by combining the amount of gastric fluid and the amount of 0.01N NaOH required for titration.

[3] = physchem; conditions: pH 6.8, aqueous buffer, thermodynamic from solid
[4] = rats, oral 3 mg/5 ml/kg in 0.5% methylcellulose, pylorus ligation 30 min after dosing, histamine s.c., gastric fluid collected 3 hours after surgery

Compound	gastric acid releasing suppression ability (% INH, Mean ± SD) [1, 4] [% INH]	gastric acid releasing suppression ability (% INH, Mean ± SD) [2] [% INH]	improved water solubility (pH 6.8) compared to the comparative compound [times]	solubility at 31 min [3] [µg/mL]	gastric acid releasing suppression ability in the gastric acid secretion animal model (in words) ([1]; rats, oral 3 mg/5 ml/kg)	gastric acid releasing suppression ability (% INH, Mean ± SD) ([1]; rat, in vivo) [% INH]	gastric acid releasing suppression ability in the gastric acid secretion animal model (in words) ([1]; rat, in vivo, po)	ability to inhibit gastric acid secretion compared to the comparative compound (in words) ([2]; drug administered to the duodenum with a neutral pH, 1 mg/5 ml/kg)
Cc1nc2cc(C(=O)N(C)C)cc(O[C@H]3CCOc4cc(F)cc(F)c43)c2[nH]1 [Comparison compound, tegoprazan, reference compound]	100 ± 0.0	29.8 ± 9.1	–	–	–	–	–	–
Cc1nc2c(O[C@H]3CCOc4cc(F)cc(F)c43)cc(C(=O)N(C)C)cc2n1COP(=O)(OC(C)(C)C)OC(C)(C)C [Embodiment 2, (S)-di-tert-butyl ((4-((5,7-difluorochroman-4-yl)oxy)-6-(dimethylcarbamoyl)-2-methyl-1H-benzo[d]imidazol-1-yl)methyl) phosphate]	26.8 ± 9.2	–	256	5120	–	–	–	–
Cc1nc2c(O[C@H]3CCOc4cc(F)cc(F)c43)cc(C(=O)N(C)C)cc2n1COP(=O)(O)OC(C)(C)C [Embodiment 3, tert-butyl ((4-(((S)-5,7-difluorochroman-4-yl)oxy)-6-(dimethylcarbamoyl)-2-methyl-1H-benzo (d)imidazol-1-yl)methyl) hydrogen phosphate]	23.9 ± 3.3	–	128	2560	–	–	–	–
Cc1nc2c(O[C@H]3CCOc4cc(F)cc(F)c43)cc(C(=O)N(C)C)cc2n1COP(=O)(O)O [Embodiment 4, (S)-(4-((5,7-difluorochroman-4-yl)oxy)-6-(dimethylcarbamoyl)-2-methyl-1H-benzo[d]imidazol-1-yl)methyl dihydrogen phosphate]	100.0 ± 0.0	–	128	2560	powerful gastric acid releasing suppression ability	–	–	–
sodium(S)-(4-((5,7-difluorochroman-4-yl)oxy)-6-(dimethylcarbamoyl)-2-methyl-1H-benzo (d) imidazol-1-yl)methyl phosphate) [Embodiment 6]	–	43.7 ± 8.7	–	–	–	92.8 ± 4.8	powerful gastric acid releasing suppression ability	improved ability to inhibit gastric acid secretion compared to the comparative compound
sodium(S)-tert-butyl ((4-((5,7-difluorochroman-4-yl)oxy)-6-(dimethylcarbamoyl)-2-methyl-1H-benzo (d) imidazol-1-yl)methyl) phosphate) [Embodiment 5]	–	–	–	–	–	12.7 ± 10.9	–	–
